Reference: patent publication EP4464309A1, “ANTIDANDRUFF COMPOSITION COMPRISING 1-ACETOXYCHAVICOL ACETATE” (Analyticon Discovery GmbH, priority 2023, dated 2024)
Where two headings read alike, the source gives them in different places.

Experiments:
[1] = Chemical stability of 2% solutions of 1-acetoxychavicol acetate on storage, followed by HPLC; assay type: physicochemical
Procedure: 1-acetoxychavicol acetate was dissolved as a 2% solution in water ethanol (70:30), an aqueous shampoo formulation, and in various vegetable oils. […] Table 1 Assessment of stability of 2% solutions of 1-acetoxychavicol acetate in wt.-percent over time

[2] = as above; assay type: physicochemical; conditions: solutions of up to 5 wt.-percent in vegetable oil, e.g. sunflower or rape seed oil; even at higher temperatures
[3] = cited from earlier work

C=CC(OC(C)=O)c1ccc(OC(C)=O)cc1 (centres unmarked) [1-acetoxychavicol acetate]
degradation ([1]; 2% solution in the shampoo formulation): fast degradation | degradation ([1]; 2% solution in vegetable oils, after 20 weeks of storage): no relevant degradation | degradation ([1]; 2% solution in water (water ethanol 70:30)): fast degradation | stability of 2% solutions of 1-acetoxychavicol acetate ([1]; Aq. Ethanol, storage time 0 w): 100 wt.-percent | stability of 2% solutions of 1-acetoxychavicol acetate ([1]; Aq. Ethanol, storage time 1 w): 80 wt.-percent | stability of 2% solutions of 1-acetoxychavicol acetate ([1]; Aq. Ethanol, storage time 2 w): 60 wt.-percent | stability of 2% solutions of 1-acetoxychavicol acetate ([1]; Aq. Ethanol, storage time 3 w): 50 wt.-percent | stability of 2% solutions of 1-acetoxychavicol acetate ([1]; Aq. Ethanol, storage time 4 w): 30 wt.-percent | stability of 2% solutions of 1-acetoxychavicol acetate ([1]; Aq. Ethanol, storage time 5 w): 20 wt.-percent | stability of 2% solutions of 1-acetoxychavicol acetate ([1]; Aq. Ethanol, storage time 6 w): 0 wt.-percent | stability of 2% solutions of 1-acetoxychavicol acetate ([1]; Aq. Ethanol, storage time 7 w): 0 wt.-percent | stability of 2% solutions of 1-acetoxychavicol acetate ([1]; Aq. Ethanol, storage time 8 w): 0 wt.-percent | stability of 2% solutions of 1-acetoxychavicol acetate ([1]; Aq. Ethanol, storage time 9 w): 0 wt.-percent | stability of 2% solutions of 1-acetoxychavicol acetate ([1]; Aq. Ethanol, storage time 10 w): 0 wt.-percent | stability of 2% solutions of 1-acetoxychavicol acetate ([1]; Aq. Ethanol, storage time 15 w): 0 wt.-percent | stability of 2% solutions of 1-acetoxychavicol acetate ([1]; Aq. Ethanol, storage time 20 w): 0 wt.-percent | stability of 2% solutions of 1-acetoxychavicol acetate ([1]; HO Rape seed oil, storage time 0 w): 100 wt.-percent | stability of 2% solutions of 1-acetoxychavicol acetate ([1]; HO Rape seed oil, storage time 1 w): 100 wt.-percent | stability of 2% solutions of 1-acetoxychavicol acetate ([1]; HO Rape seed oil, storage time 2 w): 100 wt.-percent | stability of 2% solutions of 1-acetoxychavicol acetate ([1]; HO Rape seed oil, storage time 3 w): 100 wt.-percent | stability of 2% solutions of 1-acetoxychavicol acetate ([1]; HO Rape seed oil, storage time 4 w): 100 wt.-percent | stability of 2% solutions of 1-acetoxychavicol acetate ([1]; HO Rape seed oil, storage time 5 w): 100 wt.-percent | stability of 2% solutions of 1-acetoxychavicol acetate ([1]; HO Rape seed oil, storage time 6 w): 100 wt.-percent | stability of 2% solutions of 1-acetoxychavicol acetate ([1]; HO Rape seed oil, storage time 7 w): 100 wt.-percent | stability of 2% solutions of 1-acetoxychavicol acetate ([1]; HO Rape seed oil, storage time 8 w): 100 wt.-percent | stability of 2% solutions of 1-acetoxychavicol acetate ([1]; HO Rape seed oil, storage time 9 w): 100 wt.-percent | stability of 2% solutions of 1-acetoxychavicol acetate ([1]; HO Rape seed oil, storage time 10 w): 100 wt.-percent | stability of 2% solutions of 1-acetoxychavicol acetate ([1]; HO Rape seed oil, storage time 15 w): 100 wt.-percent | stability of 2% solutions of 1-acetoxychavicol acetate ([1]; HO Rape seed oil, storage time 20 w): 100 wt.-percent | stability of 2% solutions of 1-acetoxychavicol acetate ([1]; HO Sunflower oil, storage time 0 w): 100 wt.-percent | stability of 2% solutions of 1-acetoxychavicol acetate ([1]; HO Sunflower oil, storage time 1 w): 100 wt.-percent | stability of 2% solutions of 1-acetoxychavicol acetate ([1]; HO Sunflower oil, storage time 2 w): 100 wt.-percent | stability of 2% solutions of 1-acetoxychavicol acetate ([1]; HO Sunflower oil, storage time 3 w): 100 wt.-percent | stability of 2% solutions of 1-acetoxychavicol acetate ([1]; HO Sunflower oil, storage time 4 w): 100 wt.-percent | stability of 2% solutions of 1-acetoxychavicol acetate ([1]; HO Sunflower oil, storage time 5 w): 100 wt.-percent | stability of 2% solutions of 1-acetoxychavicol acetate ([1]; HO Sunflower oil, storage time 6 w): 100 wt.-percent | stability of 2% solutions of 1-acetoxychavicol acetate ([1]; HO Sunflower oil, storage time 7 w): 100 wt.-percent | stability of 2% solutions of 1-acetoxychavicol acetate ([1]; HO Sunflower oil, storage time 8 w): 100 wt.-percent | stability of 2% solutions of 1-acetoxychavicol acetate ([1]; HO Sunflower oil, storage time 9 w): 100 wt.-percent | stability of 2% solutions of 1-acetoxychavicol acetate ([1]; HO Sunflower oil, storage time 10 w): 100 wt.-percent | stability of 2% solutions of 1-acetoxychavicol acetate ([1]; HO Sunflower oil, storage time 15 w): 100 wt.-percent | stability of 2% solutions of 1-acetoxychavicol acetate ([1]; HO Sunflower oil, storage time 20 w): 90 wt.-percent | stability of 2% solutions of 1-acetoxychavicol acetate ([1]; Olive oil, storage time 0 w): 100 wt.-percent | stability of 2% solutions of 1-acetoxychavicol acetate ([1]; Olive oil, storage time 1 w): 100 wt.-percent | stability of 2% solutions of 1-acetoxychavicol acetate ([1]; Olive oil, storage time 2 w): 100 wt.-percent | stability of 2% solutions of 1-acetoxychavicol acetate ([1]; Olive oil, storage time 3 w): 100 wt.-percent | stability of 2% solutions of 1-acetoxychavicol acetate ([1]; Olive oil, storage time 4 w): 100 wt.-percent | stability of 2% solutions of 1-acetoxychavicol acetate ([1]; Olive oil, storage time 5 w): 100 wt.-percent | stability of 2% solutions of 1-acetoxychavicol acetate ([1]; Olive oil, storage time 6 w): 100 wt.-percent | stability of 2% solutions of 1-acetoxychavicol acetate ([1]; Olive oil, storage time 7 w): 95 wt.-percent | stability of 2% solutions of 1-acetoxychavicol acetate ([1]; Olive oil, storage time 8 w): 95 wt.-percent | stability of 2% solutions of 1-acetoxychavicol acetate ([1]; Olive oil, storage time 9 w): 95 wt.-percent | stability of 2% solutions of 1-acetoxychavicol acetate ([1]; Olive oil, storage time 10 w): 90 wt.-percent | stability of 2% solutions of 1-acetoxychavicol acetate ([1]; Olive oil, storage time 15 w): 90 wt.-percent | stability of 2% solutions of 1-acetoxychavicol acetate ([1]; Olive oil, storage time 20 w): 85 wt.-percent | stability of 2% solutions of 1-acetoxychavicol acetate ([1]; Peanut oil, storage time 0 w): 100 wt.-percent | stability of 2% solutions of 1-acetoxychavicol acetate ([1]; Peanut oil, storage time 1 w): 100 wt.-percent | stability of 2% solutions of 1-acetoxychavicol acetate ([1]; Peanut oil, storage time 2 w): 100 wt.-percent | stability of 2% solutions of 1-acetoxychavicol acetate ([1]; Peanut oil, storage time 3 w): 100 wt.-percent | stability of 2% solutions of 1-acetoxychavicol acetate ([1]; Peanut oil, storage time 4 w): 100 wt.-percent | stability of 2% solutions of 1-acetoxychavicol acetate ([1]; Peanut oil, storage time 5 w): 100 wt.-percent | stability of 2% solutions of 1-acetoxychavicol acetate ([1]; Peanut oil, storage time 6 w): 100 wt.-percent | stability of 2% solutions of 1-acetoxychavicol acetate ([1]; Peanut oil, storage time 7 w): 95 wt.-percent | stability of 2% solutions of 1-acetoxychavicol acetate ([1]; Peanut oil, storage time 8 w): 95 wt.-percent | stability of 2% solutions of 1-acetoxychavicol acetate ([1]; Peanut oil, storage time 9 w): 95 wt.-percent | stability of 2% solutions of 1-acetoxychavicol acetate ([1]; Peanut oil, storage time 10 w): 90 wt.-percent | stability of 2% solutions of 1-acetoxychavicol acetate ([1]; Peanut oil, storage time 15 w): 90 wt.-percent | stability of 2% solutions of 1-acetoxychavicol acetate ([1]; Peanut oil, storage time 20 w): 85 wt.-percent | stability of 2% solutions of 1-acetoxychavicol acetate ([1]; Sesame oil, storage time 0 w): 100 wt.-percent | stability of 2% solutions of 1-acetoxychavicol acetate ([1]; Sesame oil, storage time 1 w): 100 wt.-percent | stability of 2% solutions of 1-acetoxychavicol acetate ([1]; Sesame oil, storage time 2 w): 100 wt.-percent | stability of 2% solutions of 1-acetoxychavicol acetate ([1]; Sesame oil, storage time 3 w): 100 wt.-percent | stability of 2% solutions of 1-acetoxychavicol acetate ([1]; Sesame oil, storage time 4 w): 100 wt.-percent | stability of 2% solutions of 1-acetoxychavicol acetate ([1]; Sesame oil, storage time 5 w): 100 wt.-percent | stability of 2% solutions of 1-acetoxychavicol acetate ([1]; Sesame oil, storage time 6 w): 100 wt.-percent | stability of 2% solutions of 1-acetoxychavicol acetate ([1]; Sesame oil, storage time 7 w): 95 wt.-percent | stability of 2% solutions of 1-acetoxychavicol acetate ([1]; Sesame oil, storage time 8 w): 95 wt.-percent | stability of 2% solutions of 1-acetoxychavicol acetate ([1]; Sesame oil, storage time 9 w): 95 wt.-percent | stability of 2% solutions of 1-acetoxychavicol acetate ([1]; Sesame oil, storage time 10 w): 90 wt.-percent | stability of 2% solutions of 1-acetoxychavicol acetate ([1]; Sesame oil, storage time 15 w): 90 wt.-percent | stability of 2% solutions of 1-acetoxychavicol acetate ([1]; Sesame oil, storage time 20 w): 85 wt.-percent | stability of 2% solutions of 1-acetoxychavicol acetate ([1]; Shampoo, storage time 0 w): 100 wt.-percent | stability of 2% solutions of 1-acetoxychavicol acetate ([1]; Shampoo, storage time 1 w): 80 wt.-percent | stability of 2% solutions of 1-acetoxychavicol acetate ([1]; Shampoo, storage time 2 w): 60 wt.-percent | stability of 2% solutions of 1-acetoxychavicol acetate ([1]; Shampoo, storage time 3 w): 55 wt.-percent | stability of 2% solutions of 1-acetoxychavicol acetate ([1]; Shampoo, storage time 4 w): 50 wt.-percent | stability of 2% solutions of 1-acetoxychavicol acetate ([1]; Shampoo, storage time 5 w): 40 wt.-percent | stability of 2% solutions of 1-acetoxychavicol acetate ([1]; Shampoo, storage time 6 w): 35 wt.-percent | stability of 2% solutions of 1-acetoxychavicol acetate ([1]; Shampoo, storage time 7 w): 30 wt.-percent | stability of 2% solutions of 1-acetoxychavicol acetate ([1]; Shampoo, storage time 8 w): 25 wt.-percent | stability of 2% solutions of 1-acetoxychavicol acetate ([1]; Shampoo, storage time 9 w): 20 wt.-percent | stability of 2% solutions of 1-acetoxychavicol acetate ([1]; Shampoo, storage time 10 w): 10 wt.-percent | stability of 2% solutions of 1-acetoxychavicol acetate ([1]; Shampoo, storage time 15 w): 0 wt.-percent | stability of 2% solutions of 1-acetoxychavicol acetate ([1]; Shampoo, storage time 20 w): 0 wt.-percent | stability ([1]; solution in rapeseed oil): particularly stable | stability ([1]; solution in sunflower oil): particularly stable | stability [2]: remains stable over months | stability ([3]; in aqueous solution): instable | time stable ([3]; in vegetable oil, at up to 120°C): at least 1 h | stability ([3]; solution with 30-40% ethanol, neutral pH, room temperature): stable for several month | stability ([3]; under thermal treatment, e.g. distillation): instable
